Results published in ChEMBL document CHEMBL1134821, “Synthesis and anti-HIV activity of oleanolic acid derivatives” (Bioorg Med Chem Lett, 2001).
Converted amounts (≈) assume the structure as drawn.

How the values were obtained:
[1] = Therapeutic index was determined; settings: for selectivity ratio: read-out: TI
H9 [2] = assay: Concentration which was toxic to 50% of the mock-infected H9 lymphocyte.; type: functional, cell-based; settings: Homo sapiens
H9 [3] = assay: Antiviral activity against HIV-1(IIIB) infected H9 cell lines.; type: functional, cell-based; settings: Homo sapiens

SMILES	selectivity ratio [1]	IC50 (H9 [2])	EC50 (H9 [3])	TI [1]
CC1(C)CC[C@]2(C(=O)O)CC[C@]3(C)[C@H](CC[C@@H]4[C@@]5(C)CC[C@H](OC(=O)CCCC(=O)O)C(C)(C)[C@@H]5CC[C@]43C)[C@@H]2C1	4.9	12.9 µg/mL (≈ 22.5 µM)	2.6 µg/mL (≈ 4.54 µM)	–
CC(CC(=O)O)CC(=O)O[C@H]1CC[C@]2(C)[C@H]3CC=C4[C@@H]5CC(C)(C)CC[C@]5(C(=O)O)CC[C@@]4(C)[C@]3(C)CC[C@H]2C1(C)C (stereo partly specified)	3.3	27.5 µg/mL (≈ 47 µM)	8.3 µg/mL (≈ 14.2 µM)	–
CC1(C)CC[C@]2(C(=O)O)CC[C@]3(C)[C@H](CC[C@@H]4[C@@]5(C)CC[C@H](OC(=O)CC(C)(C)C(=O)O)C(C)(C)[C@@H]5CC[C@]43C)[C@@H]2C1	3570	13.7 µg/mL (≈ 23.3 µM)	0.0039 µg/mL (≈ 0.00665 µM)	–
CC(C)(CC(=O)O)CC(=O)NC[C@]12CCC(C)(C)C[C@H]1C1=CC[C@@H]3[C@@]4(C)CC[C@H](OC(=O)CC(C)(C)CC(=O)O)C(C)(C)[C@@H]4CC[C@@]3(C)[C@]1(C)CC2	212	21.2 µg/mL (≈ 29.2 µM)	0.1 µg/mL (≈ 0.138 µM)	–
CC(CC(=O)O)CC(=O)O[C@H]1CC[C@]2(C)[C@H]3CC[C@@H]4[C@@H]5CC(C)(C)CC[C@]5(C(=O)O)CC[C@@]4(C)[C@]3(C)CC[C@H]2C1(C)C (stereo partly specified)	123	12.3 µg/mL (≈ 21 µM)	0.1 µg/mL (≈ 0.17 µM)	–
CC(C)(CC(=O)O)CC(=O)O[C@H]1CC[C@]2(C)[C@H]3CC[C@@H]4[C@@H]5CC(C)(C)CC[C@]5(C(=O)O)CC[C@@]4(C)[C@]3(C)CC[C@H]2C1(C)C	83	8.3 µg/mL (≈ 13.8 µM)	0.1 µg/mL (≈ 0.166 µM)	–
CC1(C)CC[C@]2(C(=O)O)CC[C@]3(C)[C@H](CC[C@@H]4[C@@]5(C)CC[C@H](O)C(C)(C)[C@@H]5CC[C@]43C)[C@@H]2C1	34.8	17.4 µg/mL (≈ 37.9 µM)	0.5 µg/mL (≈ 1.09 µM)	–
CC(C)(CC(=O)O)CC(=O)O[C@H]1CC[C@]2(C)[C@H]3CC=C4[C@@H]5CC(C)(C)CC[C@]5(C(=O)O)CC[C@@]4(C)[C@]3(C)CC[C@H]2C1(C)C	–	14.2 µg/mL (≈ 23.7 µM)	1.5 µg/mL (≈ 2.5 µM)	–
CC1(C)CC[C@]2(C(=O)O)CC[C@]3(C)C(=CC[C@@H]4[C@@]5(C)CC[C@H](OC(=O)CCCC(=O)O)C(C)(C)[C@@H]5CC[C@]43C)[C@@H]2C1	–	14.6 µg/mL (≈ 25.6 µM)	7.1 µg/mL (≈ 12.4 µM)	–
CC1(C)CC[C@]2(C(=O)O)CC[C@]3(C)C(=CC[C@@H]4[C@@]5(C)CC[C@H](OC(=O)CC6(CC(=O)O)CCCC6)C(C)(C)[C@@H]5CC[C@]43C)[C@@H]2C1	–	4.7 µg/mL (≈ 7.52 µM)	1.2 µg/mL (≈ 1.92 µM)	–
CC1(C)CC[C@]2(C(=O)O)CC[C@]3(C)[C@H](CC[C@@H]4[C@@]5(C)CC[C@H](OC(=O)CC6(CC(=O)O)CCCC6)C(C)(C)[C@@H]5CC[C@]43C)[C@@H]2C1	101	10.1 µg/mL (≈ 16.1 µM)	0.1 µg/mL (≈ 0.16 µM)	–
CC1(C)CC[C@]2(CNC(=O)CC3(CC(=O)O)CCCC3)CC[C@]3(C)C(=CC[C@@H]4[C@@]5(C)CC[C@H](OC(=O)CC6(CC(=O)O)CCCC6)C(C)(C)[C@@H]5CC[C@]43C)[C@@H]2C1	195	19.5 µg/mL (≈ 25.1 µM)	0.1 µg/mL (≈ 0.129 µM)	–
CC1(C)CC[C@]2(C(=O)O)CC[C@]3(C)C(=CC[C@@H]4[C@@]5(C)CC[C@H](O)C(C)(C)[C@@H]5CC[C@]43C)[C@@H]2C1 [OLEANOLIC_ACID]	–	21.8 µg/mL (≈ 47.7 µM)	1.7 µg/mL (≈ 3.72 µM)	12.8
